{"source": "the supplement of paper PMC10307832", "assay_in_all_cases": "relative viability (nuclei count vs DMSO), 5 days (fraction); higher = more cells survive", "key": {"[1]": {"compound": "COc1cc2nccc(Oc3ccc(NC(=O)C4(C(=O)Nc5ccc(F)cc5)CC4)cc3)c2cc1OC [Cabozantinib] + CC1(C)CCC(c2ccc(Cl)cc2)=C(CN2CCN(c3ccc(C(=O)NS(=O)(=O)c4ccc(N[C@H](CCN5CCOCC5)CSc5ccccc5)c(S(=O)(=O)C(F)(F)F)c4)cc3)CC2)C1 [Navitoclax] (partner 0.5 µM)", "summary_of_the_method": "(§1)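 Relative viability equals treated-well nuclei counts divided by vehicle-well nuclei counts. Counts came from 4× images of lung cancer cell lines grown in 1536-well plates for 5 days after pin-tool dosing on the day after seeding. Dosing used one drug alone or a fixed anchor-drug dose plus five library-drug doses (not always all listed) in √10 steps, and values are medians of duplicate plates.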"}, "Zosuquidar + Linsitinib": {"compound": "O[C@@H](COc1cccc2ncccc12)CN1CCN([C@@H]2c3ccccc3[C@@H]3[C@H](c4ccccc42)C3(F)F)CC1 [Zosuquidar] + C[C@]1(O)C[C@@H](c2nc(-c3ccc4ccc(-c5ccccc5)nc4c3)c3c(N)nccn32)C1 [Linsitinib] (partner 1 µM)", "summary_of_the_method": "as §1"}, "[2]": {"compound": "COc1cc2nccc(Oc3ccc(NC(=O)C4(C(=O)Nc5ccc(F)cc5)CC4)cc3)c2cc1OC [Cabozantinib] + CS(=O)(=O)N1CCN(Cc2cc3nc(-c4cccc5[nH]ncc45)nc(N4CCOCC4)c3s2)CC1 [Pictilisib] (partner 1 µM)", "summary_of_the_method": "as §1"}, "Zosuquidar + Palbociclib": {"compound": "O[C@@H](COc1cccc2ncccc12)CN1CCN([C@@H]2c3ccccc3[C@@H]3[C@H](c4ccccc42)C3(F)F)CC1 [Zosuquidar] + CC(=O)c1c(C)c2cnc(Nc3ccc(N4CCNCC4)cn3)nc2n(C2CCCC2)c1=O [Palbociclib] (partner 0.5 µM)", "summary_of_the_method": "as §1"}}, "data": [{"cell line": "UMC-11", "values": [{"measurement": "relative viability", "setting": "[1]; first compound 0.02 µM", "value": 0.298}, {"measurement": "relative viability", "setting": "[1]; first compound 0.06325 µM", "value": 0.332}, {"measurement": "relative viability", "setting": "[1]; first compound 0.2 µM", "value": 0.34}, {"measurement": "relative viability", "setting": "[1]; first compound 0.6325 µM", "value": 0.329}, {"measurement": "relative viability", "setting": "[1]; first compound 2 µM", "value": 0.297}, {"measurement": "relative viability", "setting": "Zosuquidar + Linsitinib; first compound 0.01 µM", "value": 0.976}, {"measurement": "relative viability", "setting": "Zosuquidar + Linsitinib; first compound 0.03162 µM", "value": 0.98}, {"measurement": "relative viability", "setting": "Zosuquidar + Linsitinib; first compound 0.1 µM", "value": 1.05}, {"measurement": "relative viability", "setting": "Zosuquidar + Linsitinib; first compound 0.3162 µM", "value": 1.07}, {"measurement": "relative viability", "setting": "Zosuquidar + Linsitinib; first compound 1 µM", "value": 1.07}, {"measurement": "relative viability", "setting": "[2]; first compound 0.02 µM", "value": 0.804}, {"measurement": "relative viability", "setting": "[2]; first compound 0.06325 µM", "value": 0.96}, {"measurement": "relative viability", "setting": "[2]; first compound 0.2 µM", "value": 0.8}, {"measurement": "relative viability", "setting": "[2]; first compound 0.6325 µM", "value": 0.782}, {"measurement": "relative viability", "setting": "[2]; first compound 2 µM", "value": 0.76}, {"measurement": "relative viability", "setting": "Zosuquidar + Palbociclib; first compound 0.01 µM", "value": 0.313}, {"measurement": "relative viability", "setting": "Zosuquidar + Palbociclib; first compound 0.03162 µM", "value": 0.305}, {"measurement": "relative viability", "setting": "Zosuquidar + Palbociclib; first compound 0.1 µM", "value": 0.338}, {"measurement": "relative viability", "setting": "Zosuquidar + Palbociclib; first compound 0.3162 µM", "value": 0.341}, {"measurement": "relative viability", "setting": "Zosuquidar + Palbociclib; first compound 1 µM", "value": 0.296}]}]}
